What was measured:
NFAT3 = format: cell-based, rat; settings: 10 uM
[1] = system: SINV-infected differentiated CSM14.1 cells; format: cell-based, rat; settings: 10 uM
[2] = system: Sindbis virus (SINV, TE strain); format: cell-based

## CCCOc1ccccc1-c1nc2nn[nH]c2c(=O)[nH]1 [zaprinast]
NFAT3
  cytoplasmic NFAT3 (Western blot): remained constant at all timepoints
  effect on NFAT3 activation: no effect
  nuclear NFAT3 (Western blot): remained constant at all timepoints
[1]
  viability / survival of infected cells: did not detectably affect cell survival
[2]
  viral titers / viral replication versus untreated SINV infection (in words): tended to slightly increase viral titers at most time points
